These are literature values, as cited in patent US20150104528A1, “TREATMENT FOR DEPRESSION AND OTHER MENTAL CONDITIONS WITH SYNTHETIC ISOTOPE-MODIFIED LITHIUM” (priority 2013, published 2015).

In the data set the test system is female mother rats. The following applies: female mother rats fed the substance; same dosage level for both groups.

For the compound `[6Li]` [lithium-6], the “state of alertness compared to control rats fed a placebo” value was “very high”.
